± gives the expanded uncertainty stated by the source.
What was measured:
[1] = mn = molality of the nth substance listed, in mol/kg; conditions: 100 kPa, Liquid; for viscosity: Capillary tube (Ostwald / Ubbelohde) method; for speed of sound: Frequency=3 MHz, Sing-around technique in a fixed-path interferometer; for mass density: Vibrating tube method
[2] = 100 kPa, Liquid, Capillary tube (Ostwald / Ubbelohde) method

NCC(=O)O [2-aminoacetic acid] + O
viscosity ([1]; 293.15 K, m1 = 0.1): 1.016 ± 0.022 mPa·s | speed of sound ([1]; 293.15 K, m1 = 0.1): 1488.2 ± 1.7 m/s | mass density ([1]; 293.15 K, m1 = 0.1): 1001.51 ± 0.27 kg/m3 | viscosity ([1]; 298.15 K, m1 = 0.1): 0.9031 ± 0.022 mPa·s | speed of sound ([1]; 298.15 K, m1 = 0.1): 1502.2 ± 1.7 m/s | mass density ([1]; 298.15 K, m1 = 0.1): 1000.32 ± 0.27 kg/m3 | viscosity ([1]; 303.15 K, m1 = 0.1): 0.808 ± 0.021 mPa·s | speed of sound ([1]; 303.15 K, m1 = 0.1): 1514.4 ± 1.7 m/s | viscosity ([1]; 308.15 K, m1 = 0.1): 0.7271 ± 0.021 mPa·s | speed of sound ([1]; 308.15 K, m1 = 0.1): 1525 ± 1.7 m/s | viscosity ([1]; 313.15 K, m1 = 0.1): 0.6645 ± 0.021 mPa·s | speed of sound ([1]; 313.15 K, m1 = 0.1): 1533.9 ± 1.7 m/s | mass density ([1]; 313.15 K, m1 = 0.1): 995.401 ± 0.28 kg/m3 | viscosity ([1]; 318.15 K, m1 = 0.1): 0.5988 ± 0.021 mPa·s | speed of sound ([1]; 318.15 K, m1 = 0.1): 1541.3 ± 1.6 m/s

N[C@@H](Cc1c[nH]cn1)C(=O)O [L-histidine] + O
viscosity ([1]; 293.15 K, m1 = 0.1): 1.052 ± 0.022 mPa·s | speed of sound ([1]; 293.15 K, m1 = 0.1): 1491.8 ± 1.7 m/s | mass density ([1]; 293.15 K, m1 = 0.1): 1003.99 ± 0.27 kg/m3 | viscosity ([1]; 298.15 K, m1 = 0.1): 0.928 ± 0.022 mPa·s | speed of sound ([1]; 298.15 K, m1 = 0.1): 1505.3 ± 1.7 m/s | mass density ([1]; 298.15 K, m1 = 0.1): 1002.8 ± 0.28 kg/m3 | viscosity ([1]; 303.15 K, m1 = 0.1): 0.8289 ± 0.021 mPa·s | speed of sound ([1]; 303.15 K, m1 = 0.1): 1517.4 ± 1.7 m/s | mass density ([1]; 303.15 K, m1 = 0.1): 1001.33 ± 0.28 kg/m3 | viscosity ([1]; 308.15 K, m1 = 0.1): 0.7447 ± 0.021 mPa·s | speed of sound ([1]; 308.15 K, m1 = 0.1): 1527.6 ± 1.7 m/s | mass density ([1]; 308.15 K, m1 = 0.1): 999.656 ± 0.28 kg/m3 | viscosity ([1]; 313.15 K, m1 = 0.1): 0.6783 ± 0.021 mPa·s | speed of sound ([1]; 313.15 K, m1 = 0.1): 1536.3 ± 1.7 m/s | mass density ([1]; 313.15 K, m1 = 0.1): 997.795 ± 0.28 kg/m3 | viscosity ([1]; 318.15 K, m1 = 0.1): 0.5915 ± 0.021 mPa·s | speed of sound ([1]; 318.15 K, m1 = 0.1): 1543.8 ± 1.6 m/s | mass density ([1]; 318.15 K, m1 = 0.1): 995.765 ± 0.27 kg/m3

CC(C)C[C@H](N)C(=O)O [L-leucine] + O
viscosity ([1]; 293.15 K, m1 = 0.1): 1.06 ± 0.022 mPa·s | speed of sound ([1]; 293.15 K, m1 = 0.1): 1494.9 ± 1.7 m/s | mass density ([1]; 293.15 K, m1 = 0.1): 1000.79 ± 0.27 kg/m3 | viscosity ([1]; 298.15 K, m1 = 0.1): 0.9398 ± 0.022 mPa·s | speed of sound ([1]; 298.15 K, m1 = 0.1): 1508.3 ± 1.7 m/s | mass density ([1]; 298.15 K, m1 = 0.1): 999.575 ± 0.27 kg/m3 | viscosity ([1]; 303.15 K, m1 = 0.1): 0.8362 ± 0.022 mPa·s | speed of sound ([1]; 303.15 K, m1 = 0.1): 1520.2 ± 1.7 m/s | mass density ([1]; 303.15 K, m1 = 0.1): 998.115 ± 0.28 kg/m3 | viscosity ([1]; 308.15 K, m1 = 0.1): 0.7509 ± 0.021 mPa·s | speed of sound ([1]; 308.15 K, m1 = 0.1): 1530.3 ± 1.7 m/s | mass density ([1]; 308.15 K, m1 = 0.1): 996.485 ± 0.28 kg/m3 | viscosity ([1]; 313.15 K, m1 = 0.1): 0.6801 ± 0.021 mPa·s | speed of sound ([1]; 313.15 K, m1 = 0.1): 1538.8 ± 1.7 m/s | mass density ([1]; 313.15 K, m1 = 0.1): 994.559 ± 0.29 kg/m3 | viscosity ([1]; 318.15 K, m1 = 0.1): 0.6014 ± 0.021 mPa·s | speed of sound ([1]; 318.15 K, m1 = 0.1): 1545.9 ± 1.6 m/s | mass density ([1]; 318.15 K, m1 = 0.1): 992.305 ± 0.28 kg/m3

CSCC[C@H](N)C(=O)O [L-methionine] + O
viscosity ([1]; 293.15 K, m1 = 0.1): 1.034 ± 0.023 mPa·s | speed of sound ([1]; 293.15 K, m1 = 0.1): 1493 ± 1.9 m/s | mass density ([1]; 293.15 K, m1 = 0.1): 1002.78 ± 0.43 kg/m3 | viscosity ([1]; 298.15 K, m1 = 0.1): 0.92 ± 0.022 mPa·s | speed of sound ([1]; 298.15 K, m1 = 0.1): 1506.7 ± 2 m/s | mass density ([1]; 298.15 K, m1 = 0.1): 1001.58 ± 0.43 kg/m3 | viscosity ([1]; 303.15 K, m1 = 0.1): 0.8289 ± 0.022 mPa·s | speed of sound ([1]; 303.15 K, m1 = 0.1): 1518.5 ± 1.9 m/s | mass density ([1]; 303.15 K, m1 = 0.1): 1000.16 ± 0.44 kg/m3 | viscosity ([1]; 308.15 K, m1 = 0.1): 0.7461 ± 0.021 mPa·s | speed of sound ([1]; 308.15 K, m1 = 0.1): 1528.7 ± 1.9 m/s | mass density ([1]; 308.15 K, m1 = 0.1): 998.461 ± 0.43 kg/m3 | viscosity ([1]; 313.15 K, m1 = 0.1): 0.6799 ± 0.021 mPa·s | speed of sound ([1]; 313.15 K, m1 = 0.1): 1537 ± 1.9 m/s | mass density ([1]; 313.15 K, m1 = 0.1): 996.591 ± 0.43 kg/m3 | viscosity ([1]; 318.15 K, m1 = 0.1): 0.6105 ± 0.021 mPa·s | speed of sound ([1]; 318.15 K, m1 = 0.1): 1544.2 ± 1.9 m/s | mass density ([1]; 318.15 K, m1 = 0.1): 994.572 ± 0.43 kg/m3

O [water]
viscosity ([2]; 293.15 K): 1.002 ± 0.021 mPa·s | viscosity ([2]; 298.15 K): 0.8903 ± 0.021 mPa·s | viscosity ([2]; 303.15 K): 0.7973 ± 0.021 mPa·s | viscosity ([2]; 308.15 K): 0.719 ± 0.021 mPa·s | viscosity ([2]; 313.15 K): 0.6526 ± 0.021 mPa·s | viscosity ([2]; 318.15 K): 0.596 ± 0.021 mPa·s

O [water] + C[C@H](CCC(=O)[O-])[C@H]1CC[C@H]2[C@@H]3CC[C@@H]4C[C@H](O)CC[C@]4(C)[C@H]3C[C@H](O)[C@]12C.[Na+]
viscosity ([1]; 293.15 K, m2 = 0): 1.002 ± 0.021 mPa·s | viscosity ([1]; 298.15 K, m2 = 0): 0.8903 ± 0.021 mPa·s | viscosity ([1]; 303.15 K, m2 = 0): 0.7973 ± 0.021 mPa·s | viscosity ([1]; 308.15 K, m2 = 0): 0.719 ± 0.021 mPa·s | viscosity ([1]; 313.15 K, m2 = 0): 0.6526 ± 0.021 mPa·s | speed of sound ([1]; 313.15 K, m2 = 0): 1529.2 ± 1.3 m/s | viscosity ([1]; 318.15 K, m2 = 0): 0.596 ± 0.021 mPa·s | speed of sound ([1]; 318.15 K, m2 = 0): 1536.5 ± 1.3 m/s | mass density ([1]; 318.15 K, m2 = 0): 990.256 ± 0.15 kg/m3

O [water] + C[C@H](CCC(=O)[O-])[C@H]1CC[C@H]2[C@@H]3[C@H](O)C[C@@H]4C[C@H](O)CC[C@]4(C)[C@H]3C[C@H](O)[C@]12C.[Na+]
viscosity ([1]; 293.15 K, m2 = 0): 1.002 ± 0.021 mPa·s | viscosity ([1]; 298.15 K, m2 = 0): 0.8903 ± 0.021 mPa·s | viscosity ([1]; 303.15 K, m2 = 0): 0.7973 ± 0.021 mPa·s | viscosity ([1]; 308.15 K, m2 = 0): 0.719 ± 0.021 mPa·s | viscosity ([1]; 313.15 K, m2 = 0): 0.6526 ± 0.021 mPa·s | speed of sound ([1]; 313.15 K, m2 = 0): 1529.2 ± 1.3 m/s | viscosity ([1]; 318.15 K, m2 = 0): 0.596 ± 0.021 mPa·s | speed of sound ([1]; 318.15 K, m2 = 0): 1536.5 ± 1.3 m/s | mass density ([1]; 318.15 K, m2 = 0): 990.256 ± 0.14 kg/m3

Source: the NIST ThermoML archive (doi:10.1016/j.tca.2015.02.014)
